Laboratory results reported in US20100130597A1, “DNA-PKCS MODULATES ENERGY REGULATION AND BRAIN FUNCTION” (The United State of America, as represented by the …, priority 2007, published 2010).

Columns and labels:
[1] = Elevated plus maze test; type: in vivo, mice
Method: To evaluate whether SCID mice may also have altered anxiety, fear and depression-like traits, an elevated plus maze test was performed, which is a commonly used test to quantify the level of anxiety- and depression-like traits in rodents (Pellow et al. J. Neurosci. Methods 14: 149-67 (1985)). The elevated plus maze has narrow runways that are located 16 inches above the surface that are either closed or open. The animal is placed in the center of an elevated 4-arm maze in which 2 arms are open and 2 are enclosed. Mice generally avoid the open arms because of their fear of open space and height. The elevated plus-maze is used to determine the rodent's response to a potentially dangerous environment and anxiety-related behavior is measured by the degree to which the rodent avoids the unenclosed arms of the maze. Increase in the number of times the animal enters the open arm and the amount of time spent in the open arms reflect decreased anxiety and depression.
(§1) Elevated plus maze tests, light/dark chamber tests, forced swim tests (FST) and hot plate tests were performed as described earlier.

[2] = Forced swim test (FST); type: in vivo, mice
Method: as §1

[3] = Treadmill running endurance; type: in vivo, mice
Method: Previous studies have shown that increased expression of PPARδ or PGC-1α in skeletal muscle decreases exercise-induced fatigue. Therefore, tests were performed to ascertain what was the physical endurance of 4, 7 and 14 month-old SCID and WT mice using treadmill running. Prior to the exercise test, the mice were accustomed to and trained by running on an Exer-3/6 mouse treadmill (Columbus Instruments) at 7 m/min for 5 minutes for 3 days. For the endurance test, the treadmill speed was increased to 10 m/min and mice were allowed to run until exhaustion.
The therapeutic potential of DNA-PKcs inhibitors to reverse physical decline with aging was tested. In particular, the physical endurance of obese and middle-aged mice treated with Cpd36 was examined by treadmill running. Obese mice fed a high-fat diet that were treated with Cpd36 were able to run 40-50% farther over a given period of time than the control mice fed the same high fat diet (FIG. 45), as measured by totaling the distance run on a treadmill. Middle-aged mice (13 months) fed a breeder diet who were similarly treated with Cpd36 were also able to run 40-50% farther than middle aged mice that received no such treatment (data not shown).

[4] = Glucose levels, insulin tolerance and glucose tolerance tests in treated mice; type: in vivo; conditions: for fed glucose levels in the serum: 8 mg/kg twice daily oral gavage three months
Method: (§2) The therapeutic potential of DNA-PKcs inhibitors to treat insulin resistance and diabetes was tested in vivo using high-fat induced type 2 diabetes and obesity models. We examined the effects of DNA-PKcs inhibition by feeding C57BL6/J mice with Compound 36 (Cpd36) or vehicle. Mice were treated with Cpd36 (8 mg/kg body weight) twice daily by oral gavage for three months in all efficacy studies shown in FIGS. 40-47.

[5] = Hot plate test, latency for pain reaction; type: in vivo, mice; conditions: hot plate, FIG. 48E
Method: Epidemiological studies indicate that people with mood disorders are twice as likely to have chronic pain compared to people without mood disorders (Ohayon et al., Arch. Gen. Psychiatry 60: 39-47 (2003)). Although it is possible that pain contributes to the depressed mood, it is also possible that perception of pain is increased in people with mood disorders. To determine whether SCID mice have altered pain tolerance, the latency for pain reaction to a hot plate was measured. […] (FIG. 30) and at 55° C.
Because tolerance to pain (Example 26) is also linked to the serotonergic pathways, measurements of the latency to pain reaction on hot plate after saline, serotonin reuptake inhibitor fluoxetine (Prozac) or serotonin antagonist GR38032F (Zofran) injection were made.
as §1

[6] = Body weight, fat and lean mass, food intake and activity of treated mice; type: in vivo
Method: To determine the source of the body weight difference observed as described in Example 9, the fat and lean mass of the animals used in these experiments were measured using NMR spectroscopy (Bruker BioSpin Corporation, Houston, Tex.). Body fat indices were calculated by dividing fat or lean mass by body weight.
as §2
Body weight was monitored in mice receiving Cpd36 (8 mg/kg body weight) twice daily by oral gavage for three months.

[7] = Blood-brain barrier penetration inferred from behavioural effects; type: in vivo, mice; conditions: inferred from decreased anxiety/depression at a low-dose
Text: For any central nervous system drugs, a major rate-limiting step for uptake into the brain is BBB permeability. […] The BBB is an essential physiological barrier for the maintenance and regulation of brain function. It is comprised of brain microvascular endothelial cells that are connected by tight junctions. This transvascular route to the brain is impenetrable to the majority of drugs. Enhanced BBB permeability is obtained, for example, by increasing the lipid solubility of the water-soluble molecules.

[8] = tested on: C2C12 cells; test: Cellular lactate and pyruvate in C2C12 cells; type: cell-based; conditions: 0.8 μM
[9] = tested on: C2C12 cells; test: Intercellular NAD:NADH ratio in C2C12 cells; type: cell-based; conditions: FIG. 54, Resveratrol 50 μM data not shown
Method: To test whether DNA-PKcs inhibitor affects Sirt1 activity, the intercellular NAD:NADH ratio was measured in C2C12 cells treated with Cpd36.

[10] = Light/dark chamber test; type: in vivo; conditions: treated vs untreated mice
Method: WT and SCID mice were tested in another anxiety test using the light-dark box (Bourin and Hascoet, Eur J Pharmacol 463:55 (2003)). The light-dark box test is based on the innate aversion of rodents to brightly illuminated areas and on the spontaneous exploratory behavior of rodents in response to a mildly stressful situation, that is, a novel environment and light (Crawley and Goodwin Pharmacol Biochem Behav 13:167, 1980). In the light-dark test, increased activity in the light compartment indicates decreased anxiety.
as §1

[11] = Blood lactate during standardized treadmill test; type: in vivo, mice; conditions: capillary blood during standardized treadmill test, FIG. 46A
Method: The use of Cpd36 may also facilitate more rapid recovery following intense physical exertion. Blood lactate concentrations were measured in capillary blood during a standardized treadmill test.

## O=c1cc(N2CCOCC2)oc2c(-c3cccc4c5c(sc34)CCCC5)cccc12 [Compound 36, 8-(6′,7′,8′,9′-Tetrahydrodibenzothiophen-4′-yl)-2-N-morpholinochromen-4-one]
[1]; elevated plus maze and light/dark chamber tests, FIGS. 47 and 48
  levels of anxiety/depression: dramatically lower levels of anxiety/depression
[1]; treated vs untreated mice
  time in closed arm of the elevated plus maze: less time in a closed arm
[2]; FIG. 47D
  mobility vs untreated mice: more mobile
[2]; data not shown
  immobility in the forced swim test: decreased immobility
[3]; middle-aged mice (13 months) on breeder diet, data not shown
  distance run on treadmill, farther than untreated: 40-50%
[3]; obese mice on high-fat diet, FIG. 45
  distance run on treadmill, farther than control: 40-50%
[4]; HFD (obese) mice, FIG. 40A
  fed glucose levels in the serum: lowered fed glucose levels
[4]; middle-aged mice (breeder diet 13 months), FIG. 40B
  fed glucose levels in the serum: lowered fed glucose levels
[4]; middle-aged mice, FIG. 41
  glucose tolerance: increased
  insulin sensitivity: increased
[4]; obese mice, FIG. 42
  glucose tolerance: increased
  insulin sensitivity: increased
[5]
  pain sensation: decreased pain sensation
[6]; HFD mice vs control, FIG. 44
  fat mass (NMR): reduction in fat mass
  lean mass (NMR): slight increase in lean mass
[6]; HFD mice, 8 mg/kg twice daily oral gavage three months, FIG. 43
  body weight: did not increase in body weight substantially
[6]; HFD mice, 8 mg/kg twice daily oral gavage three months, data not shown
  food intake: did increase
[6]; HFD mice, data not shown
  activity of mice vs control HFD mice: no significant difference
[6]; mice on HFD 3 months, 8 mg/kg twice daily oral gavage 3 months, vs vehicle
  mesenteric fat: reduced mesenteric fat significantly
[7]
  blood-brain barrier (BBB) penetration: can penetrate the blood-brain barrier (BBB) efficiently
[8]; 16 hrs, FIG. 46B
  lactate levels in cell extracts: Reduced lactate levels
[8]; data not shown
  Cellular pyruvate level: increased
[9]
  intercellular NAD:NADH ratio: increased the NAD:NADH ratio
[10]
  time in the light compartment: more time in the light compartment
  time to enter the light chamber: quicker to enter the light chamber
[11]
  serum lactate levels: Significantly lower serum lactate levels
